According to PubChem BioAssay (NCI):
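Tested at 5 concentrations; 48 h exposure; 96-well plates; endpoints linearly interpolated, else capped at highest concentration. At the GI50, growth is halved. TGI: concentration producing complete growth inhibition.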

What follows are molecules tested on MOLT-4 leukemia (assay: DTP human tumour cell line panel, 48 h).
Molecule O=c1cccc(C#CC#C[C@@H]2O[C@H]2CO)o1 has a GI50 of 0.33 µM and a TGI of over 100 µM.
CSc1csc(-c2ccc(-c3ccc(-c4cc(SC)cs4)s3)s2)c1 gave a TGI of over 100 µM.
CCCCCCn1c(-c2ccc(C(=O)O/N=C(\N)c3ccc4c(c3)OCO4)cc2)nc(-c2ccccc2)c1-c1ccccc1 gave a GI50 of 1.74 µM and a TGI of 4.55 µM.
In the case of [N-]=[N+]=CC(=O)OC(CCl)CCl, the TGI is reported as over 100 µM.

The molecules below were run on OVCAR-5 ovarian (assay: DTP human tumour cell line panel, 48 h).
Molecule O=c1[nH]c(-c2cccc(F)c2)cc2cc(F)ccc12 has a GI50 of 1.74 µM and a TGI of over 100 µM.
O=c1cccc(C#CC#C[C@@H]2O[C@H]2CO)o1 showed a GI50 of 0.49 µM and a TGI of 1.88 µM.
CSc1csc(-c2ccc(-c3ccc(-c4cc(SC)cs4)s3)s2)c1 was tested, and the TGI was over 100 µM.
Work on CCCCCCn1c(-c2ccc(C(=O)O/N=C(\N)c3ccc4c(c3)OCO4)cc2)nc(-c2ccccc2)c1-c1ccccc1 yielded a GI50 of 2.9 µM and a TGI of 13.8 µM.
With [N-]=[N+]=CC(=O)OC(CCl)CCl the TGI was over 100 µM.

These molecules were tested on SNB-19 CNS (assay: DTP human tumour cell line panel, 48 h).
Work on O=c1[nH]c(-c2cccc(F)c2)cc2cc(F)ccc12 yielded a GI50 of 0.664 µM and a TGI of over 100 µM.
With O=c1cccc(C#CC#C[C@@H]2O[C@H]2CO)o1 the GI50 was 3.36 µM and the TGI was 12 µM.
CSc1csc(-c2ccc(-c3ccc(-c4cc(SC)cs4)s3)s2)c1 gave a TGI of over 100 µM.
With CCCCCCn1c(-c2ccc(C(=O)O/N=C(\N)c3ccc4c(c3)OCO4)cc2)nc(-c2ccccc2)c1-c1ccccc1 the GI50 was 3.24 µM and the TGI was 12.2 µM.
With [N-]=[N+]=CC(=O)OC(CCl)CCl the TGI was over 100 µM.

What follows are molecules tested on HCT-116 colon (assay: DTP human tumour cell line panel, 48 h).
In the case of O=c1[nH]c(-c2cccc(F)c2)cc2cc(F)ccc12, the GI50 is reported as 0.195 µM and the TGI is reported as over 100 µM.
With O=c1cccc(C#CC#C[C@@H]2O[C@H]2CO)o1 the GI50 was 0.274 µM.
CSc1csc(-c2ccc(-c3ccc(-c4cc(SC)cs4)s3)s2)c1 was tested, and the TGI was over 100 µM.
CCCCCCn1c(-c2ccc(C(=O)O/N=C(\N)c3ccc4c(c3)OCO4)cc2)nc(-c2ccccc2)c1-c1ccccc1 gave a GI50 of 1.59 µM and a TGI of 3.34 µM.
With [N-]=[N+]=CC(=O)OC(CCl)CCl the TGI was over 100 µM.

These molecules were tested on T-47D breast (assay: DTP human tumour cell line panel, 48 h).
Work on O=c1[nH]c(-c2cccc(F)c2)cc2cc(F)ccc12 yielded a GI50 of over 100 µM and a TGI of over 100 µM.
Molecule O=c1cccc(C#CC#C[C@@H]2O[C@H]2CO)o1 has a GI50 of 1.33 µM and a TGI of 3.32 µM.
For CCCCCCn1c(-c2ccc(C(=O)O/N=C(\N)c3ccc4c(c3)OCO4)cc2)nc(-c2ccccc2)c1-c1ccccc1, the GI50 was 2.03 µM and the TGI was 5.11 µM.

Each molecule was assayed on SK-MEL-2 melanoma (assay: DTP human tumour cell line panel, 48 h).
In the case of O=c1[nH]c(-c2cccc(F)c2)cc2cc(F)ccc12, the GI50 is reported as 0.513 µM and the TGI is reported as over 100 µM.
O=c1cccc(C#CC#C[C@@H]2O[C@H]2CO)o1 gave a GI50 of 2.2 µM.
In the case of CSc1csc(-c2ccc(-c3ccc(-c4cc(SC)cs4)s3)s2)c1, the TGI is reported as over 100 µM.
CCCCCCn1c(-c2ccc(C(=O)O/N=C(\N)c3ccc4c(c3)OCO4)cc2)nc(-c2ccccc2)c1-c1ccccc1 was tested, and the GI50 was 4.19 µM and the TGI was 21.7 µM.
Work on [N-]=[N+]=CC(=O)OC(CCl)CCl yielded a TGI of over 100 µM.

The molecules below were run on OVCAR-4 ovarian (assay: DTP human tumour cell line panel, 48 h).
O=c1[nH]c(-c2cccc(F)c2)cc2cc(F)ccc12 showed a GI50 of over 90.9 µM and a TGI of over 100 µM.
Work on CSc1csc(-c2ccc(-c3ccc(-c4cc(SC)cs4)s3)s2)c1 yielded a TGI of over 100 µM.
With CCCCCCn1c(-c2ccc(C(=O)O/N=C(\N)c3ccc4c(c3)OCO4)cc2)nc(-c2ccccc2)c1-c1ccccc1 the GI50 was 2.21 µM and the TGI was 7 µM.
Molecule [N-]=[N+]=CC(=O)OC(CCl)CCl has a TGI of over 100 µM.

Each molecule was assayed on SK-OV-3 ovarian (assay: DTP human tumour cell line panel, 48 h).
With O=c1[nH]c(-c2cccc(F)c2)cc2cc(F)ccc12 the GI50 was 0.616 µM and the TGI was over 100 µM.
Work on O=c1cccc(C#CC#C[C@@H]2O[C@H]2CO)o1 yielded a GI50 of 4.05 µM and a TGI of 12.6 µM.
Work on CSc1csc(-c2ccc(-c3ccc(-c4cc(SC)cs4)s3)s2)c1 yielded a TGI of over 100 µM.
Molecule CCCCCCn1c(-c2ccc(C(=O)O/N=C(\N)c3ccc4c(c3)OCO4)cc2)nc(-c2ccccc2)c1-c1ccccc1 has a GI50 of 10.4 µM and a TGI of 64.3 µM.
[N-]=[N+]=CC(=O)OC(CCl)CCl gave a TGI of over 100 µM.

Each molecule was assayed on NCI-H460 lung (assay: DTP human tumour cell line panel, 48 h).
With O=c1[nH]c(-c2cccc(F)c2)cc2cc(F)ccc12 the GI50 was 0.389 µM and the TGI was over 100 µM.
Molecule O=c1cccc(C#CC#C[C@@H]2O[C@H]2CO)o1 has a GI50 of 2.03 µM and a TGI of 4.63 µM.
In the case of CSc1csc(-c2ccc(-c3ccc(-c4cc(SC)cs4)s3)s2)c1, the TGI is reported as over 100 µM.
CCCCCCn1c(-c2ccc(C(=O)O/N=C(\N)c3ccc4c(c3)OCO4)cc2)nc(-c2ccccc2)c1-c1ccccc1 was tested, and the GI50 was 2.08 µM and the TGI was 4.57 µM.
[N-]=[N+]=CC(=O)OC(CCl)CCl showed a TGI of over 100 µM.

Each molecule was assayed on EKVX NSCLC (assay: DTP human tumour cell line panel, 48 h).
For O=c1[nH]c(-c2cccc(F)c2)cc2cc(F)ccc12, the GI50 was 2.34 µM and the TGI was over 100 µM.
O=c1cccc(C#CC#C[C@@H]2O[C@H]2CO)o1 showed a GI50 of 1.79 µM and a TGI of 3.43 µM.
CSc1csc(-c2ccc(-c3ccc(-c4cc(SC)cs4)s3)s2)c1 gave a TGI of over 100 µM.
CCCCCCn1c(-c2ccc(C(=O)O/N=C(\N)c3ccc4c(c3)OCO4)cc2)nc(-c2ccccc2)c1-c1ccccc1 was tested, and the GI50 was 1.76 µM and the TGI was 3.96 µM.
Work on [N-]=[N+]=CC(=O)OC(CCl)CCl yielded a TGI of over 100 µM.

The molecules below were run on CAKI-1 renal (assay: DTP human tumour cell line panel, 48 h).
O=c1[nH]c(-c2cccc(F)c2)cc2cc(F)ccc12 showed a GI50 of 0.264 µM and a TGI of over 100 µM.
Work on O=c1cccc(C#CC#C[C@@H]2O[C@H]2CO)o1 yielded a GI50 of 1.1 µM and a TGI of 2.71 µM.
CCCCCCn1c(-c2ccc(C(=O)O/N=C(\N)c3ccc4c(c3)OCO4)cc2)nc(-c2ccccc2)c1-c1ccccc1 gave a GI50 of 1.39 µM and a TGI of 2.86 µM.

What follows are molecules tested on SF-539 CNS (assay: DTP human tumour cell line panel, 48 h).
Molecule O=c1[nH]c(-c2cccc(F)c2)cc2cc(F)ccc12 has a GI50 of 0.272 µM and a TGI of 1.7 µM.
With O=c1cccc(C#CC#C[C@@H]2O[C@H]2CO)o1 the GI50 was 1.91 µM and the TGI was 3.68 µM.
With CSc1csc(-c2ccc(-c3ccc(-c4cc(SC)cs4)s3)s2)c1 the TGI was over 100 µM.
Work on CCCCCCn1c(-c2ccc(C(=O)O/N=C(\N)c3ccc4c(c3)OCO4)cc2)nc(-c2ccccc2)c1-c1ccccc1 yielded a GI50 of 1.72 µM and a TGI of 3.2 µM.

The molecules below were run on DU-145 prostate (assay: DTP human tumour cell line panel, 48 h).
Molecule O=c1[nH]c(-c2cccc(F)c2)cc2cc(F)ccc12 has a GI50 of 0.507 µM and a TGI of over 100 µM.
For O=c1cccc(C#CC#C[C@@H]2O[C@H]2CO)o1, the GI50 was 2.42 µM and the TGI was 5.97 µM.
CCCCCCn1c(-c2ccc(C(=O)O/N=C(\N)c3ccc4c(c3)OCO4)cc2)nc(-c2ccccc2)c1-c1ccccc1 gave a GI50 of 1.33 µM and a TGI of 2.66 µM.
In the case of [N-]=[N+]=CC(=O)OC(CCl)CCl, the TGI is reported as over 100 µM.

What follows are molecules tested on SK-MEL-5 melanoma (assay: DTP human tumour cell line panel, 48 h).
O=c1[nH]c(-c2cccc(F)c2)cc2cc(F)ccc12 was tested, and the GI50 was 0.334 µM and the TGI was over 100 µM.
Molecule O=c1cccc(C#CC#C[C@@H]2O[C@H]2CO)o1 has a GI50 of 1.87 µM and a TGI of 3.9 µM.
For CSc1csc(-c2ccc(-c3ccc(-c4cc(SC)cs4)s3)s2)c1, the TGI was over 100 µM.
CCCCCCn1c(-c2ccc(C(=O)O/N=C(\N)c3ccc4c(c3)OCO4)cc2)nc(-c2ccccc2)c1-c1ccccc1 gave a GI50 of 2.22 µM and a TGI of 4.93 µM.
Molecule [N-]=[N+]=CC(=O)OC(CCl)CCl has a TGI of over 100 µM.

What follows are molecules tested on MDA-MB-231 breast (assay: DTP human tumour cell line panel, 48 h).
In the case of O=c1[nH]c(-c2cccc(F)c2)cc2cc(F)ccc12, the GI50 is reported as 2.37 µM and the TGI is reported as over 100 µM.
With O=c1cccc(C#CC#C[C@@H]2O[C@H]2CO)o1 the GI50 was 0.233 µM and the TGI was 0.877 µM.
Work on CSc1csc(-c2ccc(-c3ccc(-c4cc(SC)cs4)s3)s2)c1 yielded a TGI of over 100 µM.
Work on CCCCCCn1c(-c2ccc(C(=O)O/N=C(\N)c3ccc4c(c3)OCO4)cc2)nc(-c2ccccc2)c1-c1ccccc1 yielded a GI50 of 2.41 µM and a TGI of 6.72 µM.
Molecule [N-]=[N+]=CC(=O)OC(CCl)CCl has a TGI of over 100 µM.
